Data: paper PMC9926234, “Iterative computational design and crystallographic screening identifies potent inhibitors targeting the Nsp3 macrodomain of SARS-CoV-2” (Proceedings of the National Academy of Sciences of the …, 2023)
“And” between values parts separate entries of the source, which are not always exact repeats. Identical values can stand only once. Like-named read-outs stand apart in the source and are kept apart here.

Experiments:
Assay type in all cases: binding
SARS-CoV-2 NSP3 Mac1 [1] = biological target: T1, SARS-CoV-2 NSP3 Mac1 (Severe acute respiratory syndrome coronavirus 2, UniProt P0DTD1); conditions: for Refined occupancy: ligand occupancy after refinement (phenix.refine); for HIT*: true hit = binding in crystallographic soaking or the HTRF-based binding assay
SARS-CoV-2 NSP3 Mac1 [2] = biological target: T1, SARS-CoV-2 NSP3 Mac1; design: contains a conserved macrodomain enzyme (Mac1); conditions: for Spearman est (compound concentration vs apparent Tm): DSF dose responsiveness, 1 µM nsp3 mac1, adj p given; for DSF max dTma: maximal thermal upshift
Method in brief: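 Differential scanning fluorimetry using 5 µM Fluorescent Yellow dye in place of SYPRO Orange. Compounds run in triplicate at seven two-fold dilutions from 1,000 or 100 μM, with ΔTma taken against a DMSO control in the same plate region. Dose-response significance assessed by Spearman's coefficient between concentration and ΔTma.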

SARS-CoV-2 NSP3 Mac1 [3] = biological target: T1, SARS-CoV-2 NSP3 Mac1; experiment: biochemical; conditions: for Ki: Ki estimation from HTRF-derived IC50, Cheng-Prusoff, peptide 400nM, Kd 2.68µM, read-out: Ki***; for IC50: read-out: IC50
[4] = PanDDA 1-BDC value of the event, crystal soak, compound concentration 100 mM, per dataset
[5] = PanDDA event map, 1 minus background density correction, crystal soaking of Mac1
[6] = crystal soak, compound concentration 100 mM, per dataset
[7] = ligand modeled in the crystal structure, crystal soak, compound concentration 100 mM, per dataset
[8] = ligand modeled from this dataset, compound concentration 100 mM, Echo dispense volume 40 or 80 nl
[9] = PanDDA 1-BDC of the event, compound stock 100 mM, Echo dispense volume 40 nl
[10] = PanDDA event map 1-BDC, crystal soak, Compound_concentration 100 mM, PanDDA run dmso_34 or nohits_35 per dataset
[11] = crystal soak, Compound_concentration 100 mM, Echo dispense 40 nl, PanDDA run dmso_34 or nohits_35 per dataset
[12] = crystal soak, compound stock 100 mM, Echo dispense volume 40 nl
[13] = ligand modeled in structure, compound stock 100 mM, Echo dispense volume 40 nl
[14] = HTRF ADPr-peptide displacement from SARS-CoV-2 Mac1
[15] = PanDDA 1-BDC of the event, compound stock 100 mM, Echo dispense volume 80 nl
[16] = crystal soak, compound stock 100 mM, Echo dispense volume 80 nl
[17] = ligand modeled in structure, compound stock 100 mM, Echo dispense volume 80 nl

Row | Structure (SMILES) | 1-BDC (SARS-CoV-2 NSP3 Mac1 [1]; [4]) | 1-BDC (SARS-CoV-2 NSP3 Mac1 [1]; [5]) | PanDDA hit? (SARS-CoV-2 NSP3 Mac1 [1]; [6]) | Refined occupancy (SARS-CoV-2 NSP3 Mac1 [1]; crystal soaking of Mac1) | HIT* (SARS-CoV-2 NSP3 Mac1 [1]) | Spearman est (compound concentration vs apparent Tm) (SARS-CoV-2 NSP3 Mac1 [2]) | DSF max dTma (SARS-CoV-2 NSP3 Mac1 [2]) | Ki (SARS-CoV-2 NSP3 Mac1 [3]) | Modeled? (SARS-CoV-2 NSP3 Mac1 [1]; [8]) | IC50 (SARS-CoV-2 NSP3 Mac1 [3]; HTRF) | 1-BDC (PanDDA) (SARS-CoV-2 NSP3 Mac1 [1]; [5]) | IC50 (SARS-CoV-2 NSP3 Mac1 [3]; [14]) | also measured
1 | O=C(NC1c2cccc(O)c2CC1C(=O)O)c1cnc2c(c1)CCCN2 (stereo not shown) [8539_0006] | 0.1 | 0.1 | TRUE | 20 | Y | −0.43 | 0 ˚C | 146 µM | – | – | – | – | Modeled? (SARS-CoV-2 NSP3 Mac1 [1]; [7]): TRUE
2 | O=C(NC1c2cccc(O)c2CC1C(=O)O)c1cnc(NC2CCOCC2)cn1 (stereo not shown) [8539_0007] | 0.2 | 0.19 | TRUE | 60 | Y | 0.24 | 3.42 ˚C | 5.6 µM | TRUE | – | – | – | –
3 | O=C(NC1c2cccc(O)c2CC1C(=O)O)c1ccc(NCC2CC2)nc1 (stereo not shown) [8539_0009] | 0.18 | 0.24 | TRUE | 70 | Y | 0.34 | 2.03 ˚C | 14.9 µM | TRUE | – | – | – | –
4 | O=C1COc2cc(C(=O)NC3c4cccc(O)c4CC3C(=O)O)ccc2N1 (stereo not shown) [8539_0014] | 0.29 | 0.29 | TRUE | 58 | Y | 0.59 | 1.83 ˚C | 24.3 µM | TRUE | – | – | – | –
5 | O=C(Nc1ccc(C(=O)NC2c3ccccc3CC2C(=O)O)cc1)NC1CC1 (stereo not shown) [8539_0029] | 0.13 | 0.11 | TRUE | 22 | Y | 0.73 | 3.66 ˚C | 4.2 µM | TRUE | – | – | – | –
6 | O=C(Nc1ccc(C(=O)N[C@H]2c3ccccc3CC[C@H]2C(=O)O)cc1)NC1CC1 [8539_0030] | 0.32 | 0.32 | TRUE | 64 | Y | 0.86 | 4.92 ˚C | 5.1 µM | – | – | – | – | Modeled? (SARS-CoV-2 NSP3 Mac1 [1]; [7]): TRUE
7 | O=C(O)CC1CN(c2ncnc3[nH]ccc23)CC2(CCC2)O1 (stereo not shown) [F6831] | – | – | – | – | Y | 0.94 | 2.21 ˚C | 38.5 µM | – | 44.2 µM | – | – | binding to Mac1 in crystal soaking, result in words (SARS-CoV-2 NSP3 Mac1 [1]; soaks at 10 to 20 mM): not confirmed by X-ray crystallography
8 | O=C(O)C[C@@H]1CN(c2ncnc3[nH]c4cc(F)ccc4c23)C[C@H](CO)O1 [LL114_0001] | – | – | – | 24 | Y | – | – | 7.1 µM | – | 8.2 µM | 0.12 | 8 µM | 1-BDC (SARS-CoV-2 NSP3 Mac1 [1]; [9]): 0.12; 1-BDC (SARS-CoV-2 NSP3 Mac1 [1]; [10]): 0.14; PanDDA hit? (SARS-CoV-2 NSP3 Mac1 [1]; [11]): TRUE; PanDDA hit? (SARS-CoV-2 NSP3 Mac1 [1]; [12]): TRUE; Modeled? (SARS-CoV-2 NSP3 Mac1 [1]; [13]): TRUE
9 | O=C(O)CC1CN(c2ncnc3[nH]c4cc(Br)ccc4c23)CCO1 (stereo not shown) [LL114_0014] | – | – | – | – | Y | – | – | 22.5 µM | – | 25.9 µM | – | – | –
10 | CS(=O)(=O)NC(=O)C1CN(c2ncnc3[nH]c4cc(F)ccc4c23)CCO1 (stereo not shown) [LL114_0019] | – | – | – | 20 | Y | – | – | 10.7 µM | – | 12.3 µM | 0.1 | 12 µM | 1-BDC (SARS-CoV-2 NSP3 Mac1 [1]; [9]): 0.1; PanDDA hit? (SARS-CoV-2 NSP3 Mac1 [1]; [12]): TRUE; Modeled? (SARS-CoV-2 NSP3 Mac1 [1]; [13]): TRUE
11 | O=C(O)C1(F)CN(c2ncnc3[nH]c4cc(Br)ccc4c23)CC12CCC2 (stereo not shown) [LL123_0006] | – | – | – | 16 | Y | – | – | 80.8 µM | – | 92.9 µM | 0.08 | – | 1-BDC (SARS-CoV-2 NSP3 Mac1 [1]; [9]): 0.08; 1-BDC (SARS-CoV-2 NSP3 Mac1 [1]; [15]): 0.15; PanDDA hit? (SARS-CoV-2 NSP3 Mac1 [1]; [12]): TRUE; PanDDA hit? (SARS-CoV-2 NSP3 Mac1 [1]; [16]): TRUE; Modeled? (SARS-CoV-2 NSP3 Mac1 [1]; [13]): TRUE
12 | O=C(O)C1CN(c2ncnc3[nH]c4cc(F)ccc4c23)CCC12CCC2 (stereo not shown) [LL123_0029] | – | – | – | 22 | Y | – | – | 13.8 µM | – | 15.9 µM | 0.11 | 16 µM | 1-BDC (SARS-CoV-2 NSP3 Mac1 [1]; [15]): 0.11; PanDDA hit? (SARS-CoV-2 NSP3 Mac1 [1]; [16]): TRUE; Modeled? (SARS-CoV-2 NSP3 Mac1 [1]; [17]): TRUE
13 | CS(=O)(=O)NC(=O)C1(F)CN(c2ncnc3[nH]c4cc(F)ccc4c23)CC12CCC2 (stereo not shown) [LL123_0036] | – | – | – | 36 | Y | – | – | 14.8 µM | – | – | 0.18 | 17.1 µM and 17 µM | 1-BDC (SARS-CoV-2 NSP3 Mac1 [1]; [15]): 0.18; 1-BDC (SARS-CoV-2 NSP3 Mac1 [1]; [10]): 0.2; PanDDA hit? (SARS-CoV-2 NSP3 Mac1 [1]; [11]): TRUE; PanDDA hit? (SARS-CoV-2 NSP3 Mac1 [1]; [16]): TRUE; Modeled? (SARS-CoV-2 NSP3 Mac1 [1]; [17]): TRUE
